For eight molecules, GI50 and TGI results are on record in PubChem BioAssay (NCI).

Among the test systems are ACHN renal; BT-549 breast; CAKI-1 renal; HCC-2998 colon; HCT-15 colon; IGROV1 ovarian; LOX IMVI melanoma; OVCAR-4 ovarian; RXF 393 renal; SK-MEL-5 melanoma.
Holding throughout (test): growth of human tumour cells (NCI), 48 h

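Method: 48-hour compound exposure of cells in 96-well plates, five concentrations, linear interpolation of endpoints. Abbreviation: GI50, concentration required for 50% inhibition of growth. TGI: concentration producing complete growth inhibition.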 Bounds are passed on as bounds.

With `Cc1cccc(C(=O)/C=C/SC(=NC#N)SCc2ccccc2)c1`, the GI50 with ACHN renal is 25.6 µM; with BT-549 breast it was 16.1 µM; in the experiment on CAKI-1 renal, 13.1 µM; with HCC-2998 colon it was 19.3 µM; in the experiment with HCT-15 colon, 39.1 µM; in the experiment on IGROV1 ovarian, 21.4 µM. Moreover, the GI50 is 26.9 µM in the experiment on LOX IMVI melanoma, more than 100 µM with OVCAR-4 ovarian, 22.7 µM with RXF 393 renal and 14.7 µM with SK-MEL-5 melanoma. Besides, the TGI in the experiment on ACHN renal is 67 µM; in the experiment on BT-549 breast, 36.7 µM; in the experiment on CAKI-1 renal, 39.3 µM; in the experiment on HCC-2998 colon, 39.4 µM; with HCT-15 colon it was more than 100 µM; in the experiment on IGROV1 ovarian, 61.5 µM. Further, the TGI is more than 100 µM in the experiment on LOX IMVI melanoma, more than 100 µM in the experiment on OVCAR-4 ovarian, 57.6 µM in the experiment with RXF 393 renal and 32.9 µM in the experiment with SK-MEL-5 melanoma.

For the molecule `Cc1noc(C)c1-c1cc(O)cc(C(O)c2ccccc2)c1` (stereo not given), the GI50 in the experiment with ACHN renal was 4.76 µM; in the experiment on BT-549 breast it was 28.2 µM; in the experiment on CAKI-1 renal, 4.35 µM; in the experiment on HCC-2998 colon, 8.55 µM; in the experiment on HCT-15 colon, 3.52 µM; with IGROV1 ovarian, 23.2 µM. The GI50 with LOX IMVI melanoma is 3.6 µM; in the experiment on OVCAR-4 ovarian it was 6.35 µM; in the experiment with RXF 393 renal, 4.58 µM; in the experiment with SK-MEL-5 melanoma it was 5.95 µM. The TGI with ACHN renal, in the experiment with BT-549 breast, in the experiment with CAKI-1 renal, in the experiment with HCC-2998 colon, in the experiment on HCT-15 colon and with IGROV1 ovarian was more than 100 µM in each case. Moreover, the TGI in the experiment on LOX IMVI melanoma is 80.5 µM; in the experiment on OVCAR-4 ovarian it was more than 100 µM; in the experiment on RXF 393 renal, more than 100 µM; in the experiment on SK-MEL-5 melanoma it was 29.5 µM.

`O=C(Nc1ccc(Cl)cc1F)c1cc(I)ccc1O`: the GI50 in the experiment on ACHN renal was 1.81 µM; in the experiment with BT-549 breast, 0.735 µM; with CAKI-1 renal, 1.28 µM; in the experiment on HCC-2998 colon it was 3.1 µM; with HCT-15 colon, 2.41 µM; in the experiment with IGROV1 ovarian it was 1.51 µM. In addition, the GI50 with LOX IMVI melanoma was 1.42 µM; in the experiment with OVCAR-4 ovarian, 2.04 µM; in the experiment on RXF 393 renal, 1.57 µM; in the experiment with SK-MEL-5 melanoma, 1.12 µM. Further, the TGI in the experiment on ACHN renal turned out to be 10.1 µM; in the experiment on BT-549 breast, 2.64 µM; in the experiment with CAKI-1 renal it was 5.73 µM; in the experiment on HCC-2998 colon it was 11.9 µM; in the experiment with HCT-15 colon, 10.2 µM; in the experiment with IGROV1 ovarian, 50.4 µM. For the same molecule, the TGI with LOX IMVI melanoma worked out at 6.79 µM; in the experiment on OVCAR-4 ovarian, 15.5 µM; with RXF 393 renal, 5.2 µM; in the experiment on SK-MEL-5 melanoma it was 2.53 µM.

In the case of `CN(C)c1ccc(/C=C2\N=C(c3ccc([N+](=O)[O-])cc3)OC2=O)cc1`, the TGI was more than 100 µM in the experiment with ACHN renal; more than 100 µM in the experiment on BT-549 breast; more than 100 µM in the experiment on CAKI-1 renal; 72.4 µM with HCC-2998 colon; 45.4 µM in the experiment with HCT-15 colon; more than 100 µM in the experiment on IGROV1 ovarian. In addition, the TGI is 61.2 µM in the experiment on LOX IMVI melanoma, more than 100 µM with OVCAR-4 ovarian, more than 100 µM in the experiment on RXF 393 renal and more than 100 µM with SK-MEL-5 melanoma.

As to `O=C(CN1CCN(c2ccc(Cl)cc2)CC1)N1CCN(c2nnc(-c3ccc(Cl)cc3)c(-c3ccc(Cl)cc3)n2)CC1`, the GI50 in the experiment on ACHN renal is 31.5 µM; in the experiment with BT-549 breast, 28.7 µM; with CAKI-1 renal, 52.6 µM; in the experiment on HCC-2998 colon it was more than 100 µM; in the experiment with HCT-15 colon it was more than 100 µM; with IGROV1 ovarian, 35.1 µM. Besides, the GI50 in the experiment on LOX IMVI melanoma is 14.5 µM; with OVCAR-4 ovarian, more than 100 µM; in the experiment on RXF 393 renal, 23.8 µM; in the experiment on SK-MEL-5 melanoma it was 14.6 µM. Also, the TGI with ACHN renal, in the experiment on BT-549 breast, in the experiment on CAKI-1 renal, with HCC-2998 colon, with HCT-15 colon and in the experiment with IGROV1 ovarian was more than 100 µM each time. The TGI with LOX IMVI melanoma was 76.4 µM; in the experiment on OVCAR-4 ovarian, more than 100 µM; with RXF 393 renal it was 77.3 µM; with SK-MEL-5 melanoma it was more than 100 µM.

With `COc1ccc(-c2nn(-c3cccc(NC(=O)c4ccc5c(c4)OCCO5)c3)cc2-c2ccncc2)cc1Cl`, the GI50 in the experiment on ACHN renal was 3.82 µM; in the experiment with BT-549 breast it was 1.79 µM; with CAKI-1 renal, 2.63 µM; in the experiment on HCC-2998 colon it was 5.48 µM; in the experiment with HCT-15 colon, 1.61 µM; with IGROV1 ovarian it was 5.86 µM. The GI50 in the experiment on LOX IMVI melanoma is 3 µM; with OVCAR-4 ovarian it was 4.39 µM; with RXF 393 renal, 1.23 µM; in the experiment with SK-MEL-5 melanoma it was 0.968 µM. In addition, the TGI in the experiment on ACHN renal is more than 100 µM; in the experiment with BT-549 breast it was 7.4 µM; in the experiment on CAKI-1 renal it was 15.8 µM; in the experiment on HCC-2998 colon it was 17.9 µM; in the experiment with HCT-15 colon, 22.5 µM; in the experiment on IGROV1 ovarian, 57.2 µM. The TGI was 13 µM in the experiment with LOX IMVI melanoma, more than 100 µM in the experiment with OVCAR-4 ovarian, 4.52 µM with RXF 393 renal and 3.3 µM in the experiment with SK-MEL-5 melanoma.

For the molecule `CC(=O)O[C@H](C[C@H](C(C)C)N(C)C(=O)[C@@H](NC(=O)[C@H]1CCCCN1C)C(C)C)c1nc(C(=O)N[C@@H](Cc2ccccc2)C[C@H](C)C(=O)O)c(C(C)C)s1`, the GI50 is 0.00458 µM with ACHN renal; 0.00338 µM in the experiment with BT-549 breast; less than 0.00333 µM in the experiment on CAKI-1 renal; less than 0.00333 µM with HCC-2998 colon; 0.0101 µM in the experiment with HCT-15 colon; less than 0.00333 µM in the experiment with IGROV1 ovarian. Further, the GI50 in the experiment with LOX IMVI melanoma was less than 0.00333 µM; in the experiment on OVCAR-4 ovarian it was 0.00673 µM; in the experiment on RXF 393 renal, less than 0.00333 µM; with SK-MEL-5 melanoma, less than 0.00333 µM. For the same molecule, the TGI in the experiment on ACHN renal was more than 18.5 µM; with BT-549 breast, 0.0147 µM; in the experiment on CAKI-1 renal, more than 27.4 µM; in the experiment with HCC-2998 colon, 2 µM; in the experiment with HCT-15 colon it was more than 33.3 µM; with IGROV1 ovarian, more than 33.3 µM. Moreover, the TGI with LOX IMVI melanoma was 10.5 µM; in the experiment with OVCAR-4 ovarian, more than 33.3 µM; in the experiment on RXF 393 renal it was more than 33.3 µM; in the experiment with SK-MEL-5 melanoma, 0.00641 µM.

For `C=CC(C)(O)/C=C/C=C(\C)C(CC1OC1(C)C)OC(=O)/C(C)=C\C` (stereo not given), the TGI in the experiment on ACHN renal, in the experiment with BT-549 breast, with CAKI-1 renal, with HCC-2998 colon, in the experiment with HCT-15 colon and in the experiment with IGROV1 ovarian was more than 100 µM each time. In addition, the TGI in the experiment on LOX IMVI melanoma, in the experiment with OVCAR-4 ovarian, with RXF 393 renal and in the experiment with SK-MEL-5 melanoma was more than 100 µM each time.
